Measurements reported in patent US11541152B2, “Medical device with drug-eluting coating on modified device surface” (Lutonix, Inc., priority 2018, dated 2023).

Columns and labels:
[1] = octanol/water; cited from earlier work
[2] = stability under ethylene oxide sterilization, heating and aging; reaction with paclitaxel; conditions: for reaction with paclitaxel: ethylene oxide sterilization, heating, aging
[3] = BSA added; cited from earlier work
protein (albumin) = conditions: cited from earlier work
[4] = cited from earlier work

COc1ccc(O)c(C(C)(C)C)c1 [Butylated hydroxyanisole]
log P [1]: 1.31

O=C1O[C@H]([C@@H](O)CO)C(O)=C1O [ascorbic acid]
reaction with paclitaxel [2]: reacted with paclitaxel

O=C(O)c1ccccc1 [benzoic acid]
reaction with paclitaxel [2]: reacted with paclitaxel
stability under ethylene oxide sterilization, heating, and aging process ([2]; formulated with paclitaxel): not stable

OCCNCCO [diethanolamine]
reaction with paclitaxel [2]: reacted with paclitaxel

CC(=O)O[C@H]1C(=O)[C@@]2(C)[C@H]([C@H](OC(=O)c3ccccc3)[C@]3(O)C[C@H](OC(=O)[C@H](O)[C@@H](NC(=O)c4ccccc4)c4ccccc4)C(C)=C1C3(C)C)[C@]1(OC(C)=O)CO[C@@H]1C[C@@H]2O [paclitaxel]
increase of solubility in PBS with the addition of BSA [3]: over 20 fold

CO[C@H]1C[C@@H]2CC[C@@H](C)[C@@](O)(O2)C(=O)C(=O)N2CCCC[C@H]2C(=O)O[C@H]([C@H](C)C[C@@H]2CC[C@@H](O)[C@H](OC)C2)CC(=O)[C@H](C)/C=C(\C)[C@@H](O)[C@@H](OC)C(=O)[C@H](C)C[C@H](C)/C=C/C=C/C=C/1C [rapamycin]
protein bound (protein (albumin)): 92%
share of protein binding that is to albumin (protein (albumin); primarily to albumin): 97%

PEG-20 sorbitan monolaurate [Tween 20]
log P [1]: about 3.0

Sudan Red
solubility in aqueous solvent [4]: insoluble in aqueous solvent
